Several values for one entry are separate records, joined by “and”; a condition that tells them apart may be missing. Identical values can stand only once. Results filed as inconclusive are left out.
System: BDF1 mice, colon carcinoma 38 sc, T/C %
Assay: NCI In Vivo Anticancer Drug Screen. Data for tumor model Colon Carcinoma 38 (subcutaneous) in B6D2F1 (BDF1) mice
Method in brief: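 Mice with transplanted tumors are treated with compound or vehicle. Survival or tumor size is then measured in both groups. The ratio of treated to control gives the reported figure.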

[1] = endpoint: median tumor weight (est.), dose: 50.0 mg/kg/injection, schedule: Q07DX002 (ip), vehicle: saline, higher = larger tumour
[2] = endpoint: median tumor weight (est.), dose: 100.0 mg/kg/injection, schedule: Q07DX002 (ip), vehicle: saline, higher = larger tumour
[3] = endpoint: median tumor weight (est.), dose: 200.0 mg/kg/injection, schedule: Q07DX002 (ip), vehicle: saline, higher = larger tumour
[4] = endpoint: median tumor weight (est.), dose: 400.0 mg/kg/injection, schedule: Q07DX002 (ip), vehicle: saline, higher = larger tumour
[5] = endpoint: median tumor weight (est.), dose: 800.0 mg/kg/injection, schedule: Q07DX002 (ip), vehicle: saline, higher = larger tumour
[6] = endpoint: median tumor weight (est.), dose: 200.0 mg/kg/injection, schedule: Q07DX002 (ip), vehicle: Klucel (hydroxypropylcellulose) (HPC), higher = larger tumour

Nc1cccc(=O)[nH]1
T/C (endpoint: median tumor weight (est.), dose: 25.0 mg/kg/injection, schedule: Q07DX002 (ip), vehicle: suspension in saline, higher = larger tumour): 116 % of control | T/C [1]: 92 % of control | T/C (endpoint: median tumor weight (est.), dose: 50.0 mg/kg/injection, schedule: Q07DX002 (ip), vehicle: suspension in saline, higher = larger tumour): 66 % of control | T/C [2]: 113 % of control | T/C (endpoint: median tumor weight (est.), dose: 100.0 mg/kg/injection, schedule: Q07DX002 (ip), vehicle: suspension in saline, higher = larger tumour): 87 % of control | T/C [3]: 94 % of control | T/C (endpoint: median tumor weight (est.), dose: 200.0 mg/kg/injection, schedule: Q07DX002 (ip), vehicle: suspension in saline, higher = larger tumour): 77 % of control | T/C [4]: 91 % of control | T/C (endpoint: median tumor weight (est.), dose: 400.0 mg/kg/injection, schedule: Q07DX002 (ip), vehicle: suspension in saline, higher = larger tumour): 74 % of control | T/C [5]: 95 % of control

CN(N=O)C(=O)N[C@@H](C=O)[C@@H](O)[C@H](O)[C@H](O)CO
T/C (endpoint: median survival time, dose: 23.0 mg/kg/injection, schedule: Q01DX010 (sc), vehicle: other, higher = longer survival): 110 % of control | T/C (endpoint: median survival time, dose: 37.0 mg/kg/injection, schedule: Q01DX010 (sc), vehicle: other, higher = longer survival): 100 % of control | T/C (endpoint: median survival time, dose: 60.0 mg/kg/injection, schedule: Q01DX010 (sc), vehicle: other, higher = longer survival): 115 % of control | T/C (endpoint: median tumor weight (est.), dose: 12.5 mg/kg/injection, schedule: Q07DX003 (ip), vehicle: other, higher = larger tumour): 78 % of control | T/C (endpoint: median tumor weight (est.), dose: 25.0 mg/kg/injection, schedule: Q07DX003 (ip), vehicle: other, higher = larger tumour): 54 % of control | T/C (endpoint: median tumor weight (est.), dose: 50.0 mg/kg/injection, schedule: Q07DX003 (ip), vehicle: other, higher = larger tumour): 66 % of control | T/C (endpoint: median tumor weight (est.), dose: 100.0 mg/kg/injection, schedule: Q07DX003 (ip), vehicle: other, higher = larger tumour): 56 % of control | T/C (endpoint: median tumor weight (est.), dose: 200.0 mg/kg/injection, schedule: Q07DX003 (ip), vehicle: other, higher = larger tumour): 34 % of control

C[Si](C)(C)O/C=C1/CCOC1=O
T/C (endpoint: median tumor weight (est.), dose: 25.0 mg/kg/injection, schedule: Q07DX002 (ip), vehicle: saline, higher = larger tumour): 84 % of control | T/C [1]: 86 % of control | T/C [2]: 84 % of control | T/C [3]: 95 % of control | T/C [4]: 105 % of control | T/C [5]: 78 % of control

C[C@H]1C[C@@H]2[C@H]([C@@H](O)C[C@@]3(C)[C@H]2CC[C@]3(O)C(=O)CO)[C@@]2(C)C=CC(=O)C=C12
T/C (endpoint: median tumor weight (est.), dose: 6.25 mg/kg/injection, schedule: Q07DX002 (ip), vehicle: Klucel (hydroxypropylcellulose) (HPC), higher = larger tumour): 82 % of control | T/C (endpoint: median tumor weight (est.), dose: 25.0 mg/kg/injection, schedule: Q07DX002 (ip), vehicle: Klucel (hydroxypropylcellulose) (HPC), higher = larger tumour): 87 % of control and 88 % of control | T/C (endpoint: median tumor weight (est.), dose: 100.0 mg/kg/injection, schedule: Q07DX002 (ip), vehicle: Klucel (hydroxypropylcellulose) (HPC), higher = larger tumour): 111 % of control and 86 % of control | T/C [6]: 87 % of control and 88 % of control | T/C (endpoint: median tumor weight (est.), dose: 400.0 mg/kg/injection, schedule: Q07DX002 (ip), vehicle: Klucel (hydroxypropylcellulose) (HPC), higher = larger tumour): 93 % of control

CN=S(=O)(OCCCCCOS(=O)(=NC)c1ccc(C)cc1)c1ccc(C)cc1 (centres undefined)
T/C (endpoint: median tumor weight (est.), dose: 50.0 mg/kg/injection, schedule: Q07DX002 (ip), vehicle: saline with Tween-80, higher = larger tumour): 71 % of control and 94 % of control | T/C (endpoint: median tumor weight (est.), dose: 100.0 mg/kg/injection, schedule: Q07DX002 (ip), vehicle: saline with Tween-80, higher = larger tumour): 65 % of control and 89 % of control | T/C (endpoint: median tumor weight (est.), dose: 200.0 mg/kg/injection, schedule: Q07DX002 (ip), vehicle: saline with Tween-80, higher = larger tumour): 96 % of control | T/C (endpoint: median tumor weight (est.), dose: 400.0 mg/kg/injection, schedule: Q07DX002 (ip), vehicle: saline with Tween-80, higher = larger tumour): 61 % of control

CC(=O)OC(C)C1C2=C(C(=O)CC1(C)O)C(=O)c1c(ccc(-c3ccc4c(c3O)C(=O)C3=C(C4=O)C(C(C)OC(C)=O)C(C)(O)CC3=O)c1O)C2=O (centres undefined)
T/C (endpoint: median tumor weight (est.), dose: 1.85 mg/kg/injection, schedule: Q07DX002 (ip), vehicle: saline with Tween-80, higher = larger tumour): 155 % of control | T/C (endpoint: median tumor weight (est.), dose: 3.75 mg/kg/injection, schedule: Q07DX002 (ip), vehicle: saline with Tween-80, higher = larger tumour): 109 % of control | T/C (endpoint: median tumor weight (est.), dose: 7.5 mg/kg/injection, schedule: Q07DX002 (ip), vehicle: saline with Tween-80, higher = larger tumour): 107 % of control | T/C (endpoint: median tumor weight (est.), dose: 30.0 mg/kg/injection, schedule: Q07DX002 (ip), vehicle: saline with Tween-80, higher = larger tumour): 122 % of control

CC(=O)[O][Pb]([O]C(C)=O)([c]1ccccc1)[c]1ccccc1
T/C (endpoint: median tumor weight (est.), dose: 12.5 mg/kg/injection, schedule: Q07DX002 (ip), vehicle: Klucel (hydroxypropylcellulose) (HPC), higher = larger tumour): 216 % of control | T/C [6]: 72 % of control

— PubChem BioAssay AID212 (DTP/NCI, 2004)
